Literature values in patent US20060183185A1, “Method for the synthesis of astaxanthin” (priority 2004, published 2006).

Conditions: liposome systems; appropriate dose

Structure (SMILES): CC1=C(/C=C/C(C)=C/C=C/C(C)=C/C=C/C=C(C)/C=C/C=C(C)/C=C/C2=C(C)C(=O)C(O)CC2(C)C)C(C)(C)CC(O)C1=O (stereo not shown) [astaxanthin]
- suppression of the peroxyl radical chain reaction: completely suppress
